Laboratory results taken from ChEMBL document CHEMBL1138313, “Cyclization of the acyl glucuronide metabolite of a neutral endopeptidase inhibitor to an electrophilic glutarimide: synthesis, reactivity, and mechanistic analysis” (J Med Chem, 2007).

Experiments:
Format in all cases: ADME, organism-based
[1] = Biodistribution in Wistar rat urine at 15 umol/kg, iv after 5 hrs; conditions: read-out: Drug uptake
Plasma = test: Biodistribution in Wistar rat plasma per mL at 15 umol/kg, iv after 5 hrs; conditions: in vivo
[2] = Biodistribution in Wistar rat bile assessed as drug elimination at 15 umol/kg, iv after 5 hrs; conditions: read-out: Drug uptake
[3] = Biodistribution in Wistar rat bile assessed as drug elimination at 15 umol/kg, iv after 1 hr; conditions: read-out: Drug uptake
[4] = Biodistribution in Wistar rat bile at 50 umol/kg, iv after 1 hr; conditions: read-out: Drug uptake
Rattus norvegicus = test: Biodistribution in Wistar rat bile at 15 umol/kg, iv; conditions: in vivo
[5] = Biodistribution in Wistar rat bile at 50 umol/kg, iv after 5 hrs; conditions: read-out: Drug uptake

dose excreted at 5 h [1] | Drug uptake (Plasma) | dose excreted at 5 h [2] | dose excreted at 1 h [3] | dose excreted at 1 h [4] | Drug uptake (Rattus norvegicus) | dose excreted at 5 h [5] | Compound
4.9% | 0.3 %ID | 75.1% | 28.7% | – | – | – | CCC[C@H](CC1(C(=O)Nc2nn[14c](CC)s2)CCCC1)C(=O)O
– | – | – | – | 4.5% | 6% | 11% | CCC[C@@H]1CC2(CCCC2)C(=O)N(c2nnc(CC)s2)C1=O
